pIC50: −log10 of the molar value.
Legend:
Assay type in all cases: cell-based
[1] = molecular target: T1, N-formyl peptide receptor 2 (Homo sapiens) (UniProt P25090); experiment: Agonist activity at ALX/FPR2 in human THP1 cells harboring NF-kB-Luc assessed as inhibition of LPS-induced NFkB signalling activation by measuring NF-kB activation level at 10^-8 M pretreated for 30 mins followed by LPS stimulation for 24 hrs by luciferase reporter gene assay; set-up: scale not given: the % may be the effect or the level left
T1 sequence (whole entry): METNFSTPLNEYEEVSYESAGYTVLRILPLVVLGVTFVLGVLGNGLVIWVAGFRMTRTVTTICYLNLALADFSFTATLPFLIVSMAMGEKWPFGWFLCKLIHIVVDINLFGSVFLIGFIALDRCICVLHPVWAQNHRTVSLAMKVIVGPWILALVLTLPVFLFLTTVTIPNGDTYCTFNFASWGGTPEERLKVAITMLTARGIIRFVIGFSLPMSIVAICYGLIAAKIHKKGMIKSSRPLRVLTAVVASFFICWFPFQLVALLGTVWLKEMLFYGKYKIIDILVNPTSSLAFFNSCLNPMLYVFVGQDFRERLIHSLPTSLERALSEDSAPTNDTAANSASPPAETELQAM

[2] = molecular target: T1, N-formyl peptide receptor 2 (Homo sapiens); experiment: Agonist activity at ALX/FPR2 in human THP1 cells harboring NF-kB-Luc assessed as inhibition of LPS-induced NFkB signalling activation by measuring IL-6 secretion at 10^-7 M pretreated for 30 mins followed by LPS stimulation for 24 hrs by electrochemiluminescence assay; set-up: scale not given: the % may be the effect or the level left
[3] = molecular target: T1, N-formyl peptide receptor 2 (Homo sapiens); experiment: Agonist activity at ALX/FPR2 in human THP1 cells harboring NF-kB-Luc assessed as inhibition of LPS-induced NFkB signalling activation by measuring TNFalpha secretion at 10^-11 M pretreated for 30 mins followed by LPS stimulation for 24 hrs by electrochemiluminescence assay; set-up: scale not given: the % may be the effect or the level left
[4] = molecular target: T1, N-formyl peptide receptor 2 (Homo sapiens); experiment: Agonist activity at ALX/FPR2 in human THP1 cells harboring NF-kB-Luc assessed as inhibition of LPS-induced NFkB signalling activation by measuring IL-6 secretion at 10^-11 M pretreated for 30 mins followed by LPS stimulation for 24 hrs by electrochemiluminescence assay; set-up: scale not given: the % may be the effect or the level left
[5] = molecular target: T1, N-formyl peptide receptor 2 (Homo sapiens); experiment: Agonist activity at ALX/FPR2 in human THP1 cells harboring NF-kB-Luc assessed as inhibition of LPS-induced NFkB signalling activation by measuring NF-kB activation level at 10^-6 M pretreated for 30 mins followed by LPS stimulation for 24 hrs by luciferase reporter gene assay; set-up: scale not given: the % may be the effect or the level left
[6] = molecular target: T1, N-formyl peptide receptor 2 (Homo sapiens); experiment: Agonist activity at ALX/FPR2 in human THP1 cells harboring NF-kB-Luc assessed as inhibition of LPS-induced NFkB signalling activation by measuring IL-1beta secretion at 10^-7 M pretreated for 30 mins followed by LPS stimulation for 24 hrs by electrochemiluminescence assay; set-up: scale not given: the % may be the effect or the level left
Homo sapiens = species: Homo sapiens; experiment: Activation of Luc-fused NFkB (unknown origin) expressed in non-stimulated human THP1 cells assessed as relative luminescence unit at 10^-9 M after 24 hrs by luciferase reporter gene assay (reference value: 100%)
[7] = molecular target: T1, N-formyl peptide receptor 2 (Homo sapiens); experiment: Agonist activity at ALX/FPR2 in human THP1 cells harboring NF-kB-Luc assessed as inhibition of LPS-induced NFkB signalling activation by measuring NF-kB activation level at 10^-12 M pretreated for 30 mins followed by LPS stimulation for 24 hrs by luciferase reporter gene assay; set-up: scale not given: the % may be the effect or the level left
[8] = Cytotoxicity against mouse J774.1 cells assessed as cell viability by MTS assay relative to control; conditions: read-out: Activity
[9] = molecular target: T2, N-formyl peptide receptor 2 (Homo sapiens, UniProt P25090); experiment: Agonist activity at ALX/FPR2 in human THP1 cells harboring NF-kB-Luc assessed as inhibition of LPS-induced NFkB signalling activation pretreated for 30 mins followed by LPS stimulation for 24 hrs by luciferase reporter gene assay
T2 sequence (P25090 whole entry): T1 sequence (whole entry)

[10] = molecular target: T1, N-formyl peptide receptor 2 (Homo sapiens); experiment: Agonist activity at ALX/FPR2 in human THP1 cells harboring NF-kB-Luc assessed as inhibition of LPS-induced NFkB signalling activation by measuring NF-kB activation level at 10^-10 M pretreated for 30 mins followed by LPS stimulation for 24 hrs by luciferase reporter gene assay; set-up: scale not given: the % may be the effect or the level left
[11] = molecular target: T1, N-formyl peptide receptor 2 (Homo sapiens); experiment: Agonist activity at ALX/FPR2 in human THP1 cells harboring NF-kB-Luc assessed as inhibition of LPS-induced NFkB signalling activation by measuring IFNgamma secretion at 10^-11 M pretreated for 30 mins followed by LPS stimulation for 24 hrs by electrochemiluminescence assay; set-up: scale not given: the % may be the effect or the level left
[12] = molecular target: T1, N-formyl peptide receptor 2 (Homo sapiens); experiment: Agonist activity at ALX/FPR2 in human THP1 cells harboring NF-kB-Luc assessed as inhibition of LPS-induced NFkB signalling activation by measuring IL-12p70 secretion at 10^-11 M pretreated for 30 mins followed by LPS stimulation for 24 hrs by electrochemiluminescence assay; set-up: scale not given: the % may be the effect or the level left
[13] = molecular target: T1, N-formyl peptide receptor 2 (Homo sapiens); experiment: Agonist activity at ALX/FPR2 in human THP1 cells harboring NF-kB-Luc assessed as inhibition of LPS-induced NFkB signalling activation by measuring IL-12p70 secretion at 10^-7 M pretreated for 30 mins followed by LPS stimulation for 24 hrs by electrochemiluminescence assay; set-up: scale not given: the % may be the effect or the level left
[14] = molecular target: T1, N-formyl peptide receptor 2 (Homo sapiens); experiment: Agonist activity at ALX/FPR2 in human THP1 cells harboring NF-kB-Luc assessed as inhibition of LPS-induced NFkB signalling activation by measuring IL-12p70 secretion at 10^-9 M pretreated for 30 mins followed by LPS stimulation for 24 hrs by electrochemiluminescence assay; set-up: scale not given: the % may be the effect or the level left
[15] = molecular target: T2, N-formyl peptide receptor 2; experiment: Agonist activity at ALX/FPR2 in human THP1 cells harboring NF-kB-Luc assessed as inhibition of LPS-induced NFkB signalling activation by measuring reduction in TNFalpha secretion pretreated for 30 mins followed by LPS stimulation for 24 hrs by electrochemiluminescence assay; conditions: read-out: IC50
[16] = molecular target: T1, N-formyl peptide receptor 2 (Homo sapiens); experiment: Agonist activity at ALX/FPR2 in human THP1 cells harboring NF-kB-Luc assessed as inhibition of LPS-induced NFkB signalling activation by measuring NF-kB activation level at 10^-9 M pretreated for 30 mins followed by LPS stimulation for 24 hrs by luciferase reporter gene assay; set-up: scale not given: the % may be the effect or the level left
[17] = molecular target: T1, N-formyl peptide receptor 2 (Homo sapiens); experiment: Agonist activity at ALX/FPR2 in human THP1 cells harboring NF-kB-Luc assessed as inhibition of LPS-induced NFkB signalling activation by measuring IL-6 secretion at 10^-9 M pretreated for 30 mins followed by LPS stimulation for 24 hrs by electrochemiluminescence assay; set-up: scale not given: the % may be the effect or the level left
[18] = molecular target: T1, N-formyl peptide receptor 2 (Homo sapiens); experiment: Agonist activity at ALX/FPR2 in human THP1 cells harboring NF-kB-Luc assessed as inhibition of LPS-induced NFkB signalling activation by measuring TNFalpha secretion at 10^-9 M pretreated for 30 mins followed by LPS stimulation for 24 hrs by electrochemiluminescence assay; set-up: scale not given: the % may be the effect or the level left
[19] = molecular target: T2, N-formyl peptide receptor 2; experiment: Agonist activity at ALX/FPR2 in human THP1 cells harboring NF-kB-Luc assessed as inhibition of LPS-induced NFkB signalling activation by measuring reduction in IFNgamma secretion pretreated for 30 mins followed by LPS stimulation for 24 hrs by electrochemiluminescence assay; conditions: read-out: IC50
[20] = molecular target: T1, N-formyl peptide receptor 2 (Homo sapiens); experiment: Agonist activity at ALX/FPR2 in human THP1 cells harboring NF-kB-Luc assessed as inhibition of LPS-induced NFkB signalling activation by measuring TNFalpha secretion at 10^-7 M pretreated for 30 mins followed by LPS stimulation for 24 hrs by electrochemiluminescence assay; set-up: scale not given: the % may be the effect or the level left

Structure (SMILES) | Activity [1] [%] | Activity [2] [%] | Activity [3] [%] | Activity [4] [%] | Activity [5] [%] | Activity [6] [%] | Activity (Homo sapiens) [%] | Activity [7] [%] | viability [8] [%] | pIC50 [9] | Activity [10] [%] | Activity [11] [%] | Activity [12] [%] | Activity [13] [%] | Activity [14] [%] | pIC50 [15] | Activity [16] [%] | Activity [17] [%] | Activity [18] [%] | pIC50 [19] | further results
CCCCC[C@H](O)/C=C/C=C\C=C\C=C\[C@@H](O)[C@@H](O)CCCC(=O)O [LIPOXIN A4] | 83.3 | 1.7 | 19.6 | 2.6 | 93.3 | 5.7 | 1.5 | 95.3 | 95 to 100 | 7.58 | 85.6 | 30.3 | 25.7 | 29.6 | 37.1 | 8.11 | 84.2 | 1.1 | 16.9 | 7.65 | Activity [20]: 29.5%
CCCCC[C@@H](O)c1nc(-c2ccccc2)n(-c2ccccc2)c1/C=C/[C@@H](O)[C@@H](O)CCCC(=O)OC | 84.4 | 83.7 | 61.5 | 58.7 | 88.5 | 57.7 | 1.5 | 99.5 | 95 to 100 | 7.58 | 91.2 | 79.1 | 67.7 | 86.2 | 68.3 | 8.15 | 85.2 | 64.4 | 68.6 | 7.73 | Activity [20]: 78.1%
CCCCC[C@H](O)c1nc(-c2ccccc2)n(-c2ccccc2)c1/C=C/[C@@H](O)[C@@H](O)CCCC(=O)OC | 80.4 | 64.9 | 69.3 | 69 | 90.2 | 67.4 | 1.6 | 88.2 | 95 to 100 | 7.49 | 79.7 | 69.1 | 65.1 | 138 | 61.4 | 8.39 | 80.3 | 77.3 | 80.9 | 9.15 | Activity [20]: 86.8%
